Columns and labels:
[1] = test system: P. stuartii; test: ESBL NDP test using cultured strains; type: biochemical, Providencia stuartii; design: key: (+) and (−) referred to color change being, red to yellow or unchanged, respectively; (+) and (−) referred to color change being, red to yellow or unchanged, respectively; conditions: P. stuartii TEM-24, n=1
Description: (§1) Strains were isolated on Mueller-Hinton agar (Biorad, Marnes-la-Coquette, France) and incubated at 37° C. for 16 h to 24 h before performing the NDP rapid ESBL test as follows. One calibrated inoculated loop (10 μl) of the tested strain was resuspended in 150 μl of 20 mM Tris-HCl lysis buffer previously distributed in Microbead tubes (Ultraclean Microbial DNA isolation kit Bead Tubes, MO BIO Laboratories, Carlsbad, USA). Mechanical lysis of bacteria was performed by strong agitation of Microbead tubes using a vortex adapter (MO BIO Laboratories) for 30 min at room temperature. This bacterial suspension was centrifuged at 10,000×g at room temperature for 5 min. Thirty μl of the supernatant was mixed in a well of a 96-well tray with 100 μl of a 1 ml solution made of 3 mg of purified cefotaxime sodium salt (Sigma-Aldrich, Saint-Quentin-Fallavier, France) in a pH 7.8 phenol red solution. […]. The phenol red solution was made by taking 2 ml of a concentrated pH 8 phenol solution (made from a mixture of phenol red 0.5% in distilled water) to which 16.6 ml of distilled water was added. The pH value was then adjusted to a 7.8 value by adding drops of a 1 N NaOH solution. Mixture of the phenol red solution and the enzymatic suspension being tested was incubated at 37° C. for 30 min. Similarly, culture extracts were analyzed in wells containing cefotaxime and tazobactam (4 mg/ml). […]

[2] = test system: Enterobacteriaceae; type: biochemical; conditions: all CTX-M producers (n=147); tazobactam added to cefotaxime well
Description: Strains were isolated on Mueller-Hinton agar (Biorad, Marnes-la-Coquette, France) and incubated at 37° C. for 16 h to 24 h before performing the NDP rapid ESBL test as follows. One calibrated inoculated loop (10 μl) of the tested strain was resuspended in 150 μl of 20 mM Tris-HCl lysis buffer previously distributed in Microbead tubes (Ultraclean Microbial DNA isolation kit Bead Tubes, MO BIO Laboratories, Carlsbad, USA). Mechanical lysis of bacteria was performed by strong agitation of Microbead tubes using a vortex adapter (MO BIO Laboratories) for 30 min at room temperature. This bacterial suspension was centrifuged at 10,000×g at room temperature for 5 min. Thirty μl of the supernatant was mixed in a well of a 96-well tray with 100 μl of a 1 ml solution made of 3 mg of purified cefotaxime sodium salt (Sigma-Aldrich, Saint-Quentin-Fallavier, France) in a pH 7.8 phenol red solution. […] The phenol red solution was made by taking 2 ml of a concentrated pH 8 phenol solution (made from a mixture of phenol red 0.5% in distilled water) to which 16.6 ml of distilled water was added. The pH value was then adjusted to a 7.8 value by adding drops of a 1 N NaOH solution. Mixture of the phenol red solution and the enzymatic suspension being tested was incubated at 37° C. for 30 min. Similarly, culture extracts were analyzed in wells containing cefotaxime and tazobactam (4 mg/ml). […]

[3] = test system: E. coli; test: Susceptibility testing, MIC by Etest; type: cell-based, Escherichia coli
Description: (§2) Susceptibility testing was performed by determining MIC values using the Etest® (AB bioMérieux; Solna, Sweden) on Mueller-Hinton agar plates at 37° C. and results were recorded according to US guidelines (CLSI), as updated in 2012 (2). The breakpoints for cefotaxime are susceptible (S)≤1 and resistant (R)≥4 μg/ml, and for ceftazidime S≤4 and R≥16 μg/ml.

[4] = test system: E. cloacae; test: Susceptibility testing, MIC by Etest; type: cell-based, Enterobacter cloacae
Description: as §2

[5] = test system: C. freundii; test: Susceptibility testing, MIC by Etest; type: cell-based, Citrobacter freundii
Description: as §2

[6] = test system: P. stuartii; test: Susceptibility testing, MIC by Etest; type: cell-based, Providencia stuartii; conditions: P. stuartii TEM-24, n=1
Description: as §2

[7] = test system: CTX-M producers; test: Susceptibility testing, MIC by Etest; type: cell-based, Enterobacteriaceae; conditions: all CTX-M producers (n=147)
Description: as §2

[8] = test system: C. freundii; test: ESBL NDP test using spiked blood cultures; type: biochemical, Citrobacter freundii; design: key: (+) and (−) referred to color change being, red to yellow or unchanged, respectively; (+) and (−) referred to color change being, red to yellow or unchanged, respectively; conditions: C. freundii BG 1106 7767, Wild-type
Description: as §1, with “The phenol red solution was made by taking 2 ml of a concentrated pH 8 phenol solution (made from a mixture of phenol red 0.5% in distilled water) to which 16.6 ml of distilled water was added. The pH value was then adjusted to a 7.8 value by adding drops of a 1 N NaOH solution. Mixture of the phenol red solution and the enzymatic suspension being tested was incubated at 37° C. for 30 min.” left out
(§3) Rapid detection of ESBL producers was attempted from spiked blood cultures which positivity was assessed using the BactAlert blood culture system (bioMérieux). […] Spiked blood cultures were made of 1×10^3 CFU of each strain and incubated 24 to 48 h before a positivity of the blood culture was detected by the BactAlert system. […]

[9] = test system: S. marcescens; test: ESBL NDP test using spiked blood cultures; type: biochemical, Serratia marcescens; design: key: (+) and (−) referred to color change being, red to yellow or unchanged, respectively; (+) and (−) referred to color change being, red to yellow or unchanged, respectively
Description: as §1, with “The phenol red solution was made by taking 2 ml of a concentrated pH 8 phenol solution (made from a mixture of phenol red 0.5% in distilled water) to which 16.6 ml of distilled water was added. The pH value was then adjusted to a 7.8 value by adding drops of a 1 N NaOH solution. Mixture of the phenol red solution and the enzymatic suspension being tested was incubated at 37° C. for 30 min.” left out
as §3

[10] = test system: P. mirabilis; test: ESBL NDP test using spiked blood cultures; type: biochemical, Proteus mirabilis; design: key: (+) and (−) referred to color change being, red to yellow or unchanged, respectively; (+) and (−) referred to color change being, red to yellow or unchanged, respectively
Description: Strains were isolated on Mueller-Hinton agar (Biorad, Marnes-la-Coquette, France) and incubated at 37° C. for 16 h to 24 h before performing the NDP rapid ESBL test as follows. One calibrated inoculated loop (10 μl) of the tested strain was resuspended in 150 μl of 20 mM Tris-HCl lysis buffer previously distributed in Microbead tubes (Ultraclean Microbial DNA isolation kit Bead Tubes, MO BIO Laboratories, Carlsbad, USA). Mechanical lysis of bacteria was performed by strong agitation of Microbead tubes using a vortex adapter (MO BIO Laboratories) for 30 min at room temperature. This bacterial suspension was centrifuged at 10,000×g at room temperature for 5 min. Thirty μl of the supernatant was mixed in a well of a 96-well tray with 100 μl of a 1 ml solution made of 3 mg of purified cefotaxime sodium salt (Sigma-Aldrich, Saint-Quentin-Fallavier, France) in a pH 7.8 phenol red solution. […]. The phenol red solution was made by taking 2 ml of a concentrated pH 8 phenol solution (made from a mixture of phenol red 0.5% in distilled water) to which 16.6 ml of distilled water was added. The pH value was then adjusted to a 7.8 value by adding drops of a 1 N NaOH solution. Mixture of the phenol red solution and the enzymatic suspension being tested was incubated at 37° C. for 30 min. Similarly, culture extracts were analyzed in wells containing cefotaxime and tazobactam (4 mg/ml). Other concentrations of tazobactam and other ß-lactamase inhibitors were tested giving less clear results (data not shown). […] This definition of test positivity will be applied throughout the study.
as §3, with “(bioMérieux). […] This inoculum was reached after 24-48 h incubation in this BactAlert system. Strains were inoculated into blood culture system in presence of 10 ml of sterile blood.” for “(bioMérieux).”

**Q.** For CO/N=C(\C(=O)N[C@@H]1C(=O)N2C(C(=O)O)=C(COC(C)=O)CS[C@H]12)c1csc(N)n1 [CTX, cefotaxime], which “Test (color change)” value [1] is on record?
**A.** Its value is “−”.

**Q.** What about the “color of the wells” value [2] of the same compound?
**A.** Its value is “turned from red to yellow”.

**Q.** What about the MICs range ([3]; E. coli ACC-1, n=1, first line) of the same compound?
**A.** Its MICs range is >16 µg/mL.

**Q.** And the MICs range ([3]; E. coli ACC-1, n=1, second line)?
**A.** The MICs range was >16 µg/mL.

**Q.** And the MICs range ([3]; E. coli CMY-2, n=1)?
**A.** The MICs range was >16 µg/mL.

**Q.** What about the MICs range ([3]; E. coli CTX-M-1, n=16) of the same compound?
**A.** The MICs range was >16 µg/mL.

**Q.** What about the MICs range ([3]; E. coli CTX-M-2, n=3) of the same compound?
**A.** Its MICs range is >16 µg/mL.

**Q.** What about the MICs range ([3]; E. coli CTX-M-3, n=1) of the same compound?
**A.** Its MICs range is >16 µg/mL.

**Q.** What about the MICs range ([3]; E. coli CTX-M-9, n=1) of the same compound?
**A.** Its MICs range is >16 µg/mL.

**Q.** What about the MICs range ([3]; E. coli CTX-M-14, n=15) of the same compound?
**A.** Its MICs range is >16 µg/mL.

**Q.** What about the MICs range ([3]; E. coli CTX-M-27, n=6) of the same compound?
**A.** The MICs range was >16 µg/mL.

**Q.** What about the MICs range ([3]; E. coli CTX-M-28, n=1) of the same compound?
**A.** The MICs range was >16 µg/mL.

**Q.** And the MICs range ([3]; E. coli CTX-M-32, n=1)?
**A.** The MICs range was >16 µg/mL.

**Q.** And the MICs range ([3]; E. coli CTX-M-97, n=1)?
**A.** The MICs range was >16 µg/mL.

**Q.** And the MICs range ([3]; E. coli DHA-1, n=1)?
**A.** Its MICs range is 0.25 µg/mL.

**Q.** And the MICs range ([3]; E. coli SHV-3, n=1)?
**A.** The MICs range was 12 µg/mL.

**Q.** And the MICs range ([3]; E. coli SHV-12, n=1)?
**A.** The MICs range was 0.75 µg/mL.

**Q.** And the MICs range ([3]; E. coli SHV-12, n=6)?
**A.** Its MICs range is >16 µg/mL.

**Q.** And the MICs range ([3]; E. coli TEM-1 penicillinase, n=5)?
**A.** Its MICs range is 0.03 to 0.09 µg/mL.

**Q.** And the MICs range ([3]; E. coli TEM-12, n=1)?
**A.** The MICs range was 0.5 µg/mL.

**Q.** And the MICs range ([3]; E. coli TEM-29, n=2)?
**A.** The MICs range was 0.25 µg/mL.

**Q.** And the MICs range ([3]; E. coli TEM-133, n=1)?
**A.** Its MICs range is 0.19 µg/mL.

**Q.** What about the MICs range ([3]; E. coli VEB-1, n=1) of the same compound?
**A.** The MICs range was 8 µg/mL.

**Q.** What about the MICs range ([3]; E. coli Wild-type, no resistance, n=5) of the same compound?
**A.** Its MICs range is 0.02 to 0.04 µg/mL.

**Q.** And the MICs range ([4]; E. cloacae CTX-M-14, n=1)?
**A.** The MICs range was >16 µg/mL.

**Q.** What about the MICs range ([4]; E. cloacae CTX-M-15, n=17) of the same compound?
**A.** The MICs range was >16 µg/mL.

**Q.** And the MICs range ([4]; E. cloacae GES-5, n=1)?
**A.** The MICs range was >16 µg/mL.

**Q.** And the MICs range ([4]; E. cloacae PER-1, n=1)?
**A.** Its MICs range is >16 µg/mL.

**Q.** What about the MICs range ([4]; E. cloacae SHV-5, n=1) of the same compound?
**A.** The MICs range was >16 µg/mL.

**Q.** And the MICs range ([4]; E. cloacae TEM-3, n=2)?
**A.** The MICs range was >16 µg/mL.

**Q.** What about the MICs range ([4]; E. cloacae VEB-1, n=1) of the same compound?
**A.** The MICs range was 16 µg/mL.

**Q.** And the MICs range ([4]; E. cloacae Wild-type, chromosome-encoded cephalosporinase, n=5)?
**A.** The MICs range was 0.09 to 0.5 µg/mL.

**Q.** And the MICs range ([4]; E. cloacae, overexpressed chromosome-encoded cephalosporinase, n=2)?
**A.** Its MICs range is >16 µg/mL.

**Q.** And the MICs range ([4]; E. cloacae, overexpressed chromosome-encoded cephalosporinase, n=3)?
**A.** Its MICs range is >16 µg/mL.

**Q.** What about the MICs range ([5]; C. freundii CTX-M-15, n=3) of the same compound?
**A.** Its MICs range is >16 µg/mL.

**Q.** What about the MICs range ([5]; C. freundii TEM-3, n=1) of the same compound?
**A.** Its MICs range is >16 µg/mL.

**Q.** And the MICs range ([5]; C. freundii Wild-type, chromosome-encoded cephalosporinase, n=1)?
**A.** The MICs range was 0.12 µg/mL.

**Q.** And the MICs range [6]?
**A.** Its MICs range is 0.5 µg/mL.

**Q.** And the MIC [7]?
**A.** Its MIC is > 8 µg/mL.

**Q.** And the “ESBL NDP Test from: Blood culture” value [8]?
**A.** The value was “−”.

**Q.** And the “ESBL NDP Test from: Blood culture” value ([9]; S. marcescens BG 1107 4243, Wild-type)?
**A.** The value was “−”.

**Q.** What about the “ESBL NDP Test from: Blood culture” value ([9]; S. marcescens BN 1201 0816, Wild-type) of the same compound?
**A.** Its value is “−”.

**Q.** And the “ESBL NDP Test from: Blood culture” value ([10]; P. mirabilis 09.128, TEM-52)?
**A.** The value was “+”.

**Q.** What about the “ESBL NDP Test from: Blood culture” value ([10]; P. mirabilis 09.177, TEM-21) of the same compound?
**A.** Its value is “+”.

**Q.** What about the “ESBL NDP Test from: Blood culture” value ([10]; P. mirabilis BIK, ACC-1) of the same compound?
**A.** Its value is “−”.

From patent US10793892B2, “Method for detecting the presence of expanded spectrum β-lactamase-producing bacteria in a sample” (INSERM (INSTITUT NATIONAL DE LA SANTE ET DE LA RECHERCHE …, priority 2011, dated 2020)
